Measured values reported in paper PMC4850295, “Using a Genetically Encoded Sensor to Identify Inhibitors of Toxoplasma gondii Ca^2+ Signaling” (The Journal of Biological Chemistry, 2016).
Where “and” joins values, the source holds several entries; their conditions need not be identical. Equal values may be shown once.

System: T1, GCaMP5-expressing T. gondii
T1 construct: whole extracellular parasites expressing GCaMP5 Ca2+ sensor
Set-up: species or system GCaMP5-expressing Toxoplasma gondii, extracellular; GCaMP5 fluorescence (cytosolic Ca2+) after 100 uM zaprinast in compound-pretreated extracellular parasites, background-subtracted, relative to zaprinast alone
Conditions: 100 uM zaprinast stimulation, 10 min pretreatment, mean of two replicates, 0.23 h, 10 µM
In short: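 Read-out is GCaMP5 calcium fluorescence (ex 485/em 525 nm) taken 4 min after 100 μM zaprinast at 37 °C, following 10 min compound pretreatment at 10 μM in duplicate biological replicates. Values are basal-subtracted fold change versus zaprinast-only controls; parasites held extracellular in Ringer's solution.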

Row | SMILES | fold change in fluorescence relative to zaprinast alone
1 | Fc1ccc(-c2nc3n(c2-c2ccncc2)CCS3)cc1 [GI98581X] | 0.7657 and 1.237

Same assay, conditions: 100 uM zaprinast stimulation; 10 min pretreatment; mean of two replicates; 0.23 h

Row | SMILES | fold change in fluorescence relative to zaprinast alone
2 | CC1=C(C(=O)Nc2ccc3[nH]ncc3c2)C(c2ccc(F)cc2)NC(=O)N1 (stereo not drawn) [GSK180736A] | 0.8811
3 | Cc1cc(-c2c(-c3ccc(F)cc3)ncn2CCCN2CCOCC2)nc(N)n1 [SB-222517] | 1.044
4 | CC(C)(C)c1ccc(-n2cnc3c(N)ncnc32)cc1 [SKF-97263] | 1.008
5 | NCC(NC(=O)c1cc(-c2cn[nH]c2)c(-c2ccnc3[nH]ccc23)s1)c1ccccc1 (stereo not drawn) [GSK1325775A] | 1.276
6 | CCS(=O)(=O)c1ccc(OC)c(Nc2ncc(-c3cccc(OC)c3)o2)c1 [GW580509X] | 1.14
7 | CNC(=O)c1cncc(/C=C/c2c(C)cccc2C)c1 [GW445012X] | 1.157
8 | O=C(Nc1n[nH]c2nc(-c3ccccc3)c(Cl)cc12)C1CC1 [SB-734909] | 1.154
9 | COc1ccc(S(=O)(=O)NC2CCN(c3cc(C)nc(Nc4cccc(C#N)c4)n3)CC2)cc1 [GSK1653539A] | 0.8764
10 | NC(=O)c1cccc(Nc2nccc(Nc3cccc4[nH]ncc34)n2)c1 [GW782612X] | 1.061
11 | COc1cccc(CC(=O)N2CCc3cc(-c4cn(C)c5ncnc(N)c45)ccc32)c1 [GSK2608899A] | 0.9364
12 | COc1cccc(NC(=O)Nc2ccc(C)c(-c3ccc(C(=O)Nc4ccncc4)cc3)c2)c1 [GSK1398474A] | 1.231
13 | NC[C@H](CC1CCCCC1)NC(=O)c1cc(Br)c(-c2ccnc3[nH]ccc23)s1 [GSK1581427A] | 1.128
14 | CNC(=O)c1ccccc1Nc1nc(Nc2ccc(N3CCOCC3)cc2)ncc1Cl [GSK1576028A] | 1.198
15 | CCn1c(-c2nonc2N)nc2cncc(C(=O)N3CC[C@H](N)C3)c21 [SB-772077-B] | 1.135
16 | O=c1[nH]ccc2nc(N[C@@H]3CCNC3)nc(Nc3cc(Cl)cc(Cl)c3)c12 [GSK2188764A (Enh2)] | 2.366
17 | Fc1cc(Cl)ccc1Nc1ccnc2cc(I)ccc12 [GW551191X] | 1.044
18 | CCn1c(-c2ccncc2)nc2cnccc21 [SB-735216] | 1.246
19 | O=C(Nc1n[nH]c2nc(-c3nccs3)c(Br)cc12)C1CCCC1 [SB-742609] | 1.102
20 | Fc1ccc(-c2ncn(CCCNCc3ccccc3)c2-c2ccncc2)cc1 [SB-210486] | 0.7327
21 | Cc1ccc(O)cc1Nc1ccnc2cc(-c3ccc(CN4CCCCC4)o3)ccc12 [GW557777X] | 0.8105
22 | Nc1ncnc2occ(-c3ccc4c(c3)CCN4C(=O)Cc3cc(F)ccc3F)c12 [GSK2645446A] | 0.8883

Row | SMILES | fold change in fluorescence relative to zaprinast alone
23 | COc1ccc(Nc2nccc(NCCNC(=O)c3cc4ccccc4s3)n2)cc1 [GSK1379896A] | 1.173
24 | Cc1ccc(C(=O)NC2CCC2)cc1-c1ccc(C(=O)NCC2CC2)cc1 [GW782912X] | 1.104
25 | Nc1nccc(-c2c(-c3ccc(F)cc3)nn3cc(C(F)(F)F)ccc23)n1 [GW568326X] | 1.261
26 | c1ccc(-c2n[nH]cc2-c2ccnc(-c3ccc(OCCn4ccnc4)cc3)c2)nc1 [GW711782X] | 1.163
27 | NC(CNC(=O)c1cc(Br)c(-c2ccnc3[nH]ccc23)s1)c1ccccc1 (stereo not drawn) [GSK1322949A] | 0.4024
28 | CCc1cccc(NC(=O)Nc2ccc(Oc3ccc4nc(NC(=O)OC)[nH]c4c3)cc2)c1 [GW673715X] | 1.098
29 | O=S(=O)(c1ccc(-c2ccnc3[nH]ccc23)cc1)N1CCCC1 [GSK846226A] | 1.029
30 | NS(=O)(=O)c1ccc(NC=C2C(=O)Nc3ccc4ncsc4c32)cc1 [GW589933X] | 1.196
31 | Nc1nc(Nc2ccccc2)cc(-c2ccc3c(N)n[nH]c3c2)n1 [GSK2225749A] | 1.117
32 | NS(=O)(=O)c1ccc(N/N=C2\C(=O)Nc3ccc(Cl)cc32)cc1 [GW280670X] | 0.9881
33 | COc1cccc(C2=C(Nc3cccc(Cl)c3)C(=O)NC2=O)c1 [SB-341556] | 1.087
34 | c1ccc(Cc2nc3ccc(Nc4ncnc5ccccc45)cc3[nH]2)cc1 [GR269666A] | 1.257
35 | COc1cccc(-n2ncc3c(N/N=C/c4ccc(F)cc4)ncnc32)c1 [GW817396X] | 1.185
36 | CN(C)C(=O)O[C@@H]1CN[C@@H](C#Cc2cc3ncnc(Nc4ccc(OCc5cccc(F)c5)c(Cl)c4)c3s2)C1 [GSK238063A] | 1.133
37 | COc1ccc(Nc2nccc(NCCNC(=O)Nc3ccccc3F)n2)cc1 [GSK1379901A] | 0.9014
38 | NCCCC(NC(=O)c1cc(Br)c(-c2ccnc3[nH]ccc23)s1)c1ccccc1 (stereo not drawn) [GSK1287544A] | 0.7469
39 | CCN(CC)S(=O)(=O)c1ccc(OC)c(Nc2ncc(-c3ccccc3)o2)c1 [GW572401X] | 1.034
40 | c1ccc(-c2[nH]ncc2Nc2ccnc3ccccc23)nc1 [GW694077X] | 1.237
41 | COc1ccc2cc(-c3c(-c4ccncc4)nc(-c4ccc(S(C)(=O)=O)cc4C)n3C)ccc2c1 [SB-633825] | 0.9532
42 | Cc1cccc2c(-c3ccncc3)c(-c3ccc(F)cc3)nn12 [GW461487A] | 0.2322
43 | COc1ccc2ncnc(Nc3ccc(OCc4ccccc4)cc3)c2c1 [GI261520A] | 0.7394

Row | SMILES | fold change in fluorescence relative to zaprinast alone
44 | CC1=C(C(=O)Nc2cc(Cl)c3[nH]ncc3c2)C(c2ccc(C(F)(F)F)cc2)CC(=O)N1 (stereo not drawn) [GSK466317A] | 1.01
45 | CN(C)CCOc1ccc(-c2cc(-c3ccc(Cl)c(O)c3)c(-c3ccncc3)[nH]2)cc1 [SB-684387-B] | 0.6076
46 | COc1cc2c(Nc3cccc(NC(=O)c4ccccc4)c3)ncnc2cc1OCCCN1CCOCC1 [GSK223810A] | 1.471
47 | NC(=O)c1sc(-n2cnc3ccc(C(F)(F)F)cc32)cc1OCc1ccccc1Br [GW853606X] | 1.175
48 | COC(=O)Nc1nc2ccc(Oc3ccc(NC(=O)Nc4cccc(Cl)c4)cc3)cc2[nH]1 [GW589961A] | 1.185
49 | COc1ccc(-c2oc3ncnc(N)c3c2-c2ccc(OC)cc2)cc1 [SB-589132] | 1.026
50 | CS(=O)(=O)CCNCc1ccc(-c2ccc3ncnc(Nc4ccc(OCc5ccccc5)c(C(F)(F)F)c4)c3c2)o1 [GW574782A] | 0.7605
51 | O=C1NC(=O)C(c2ccccc2Cl)=C1Nc1cccc(O)c1 [SB-390527] | 1.108
52 | CC(C)c1ccc(Nc2nccc(-c3cnn4ncccc34)n2)cc1 [GW805758X] | 0.2516
53 | NS(=O)(=O)c1cccc(-c2ccc3ncc(N4CCOCC4)nc3c2)c1 [GSK1535721A] | 1.22
54 | Clc1ccc(-c2nn3ncccc3c2-c2ccnc(Nc3ccccc3)n2)cc1 [GW829055X] | 1.188
55 | COC(=O)Nc1nc2cc(Oc3ccc(NC(=O)Nc4cccc(Br)c4)cc3)ccc2[nH]1 [GW694234A] | 0.8976
56 | CN(C1=C(c2ccccc2)C(=O)NC1=O)c1ccccc1 [SB-334860] | 0.8099
57 | COc1cc2nccc(Nc3ccc(Oc4ccccc4)cc3)c2cc1OC [GI261656A] | 0.5416
58 | CC1=C(C(=O)Nc2ccc3[nH]nc(C)c3c2)C(c2ccc(C(F)(F)F)cc2)CC(=O)N1 (stereo not drawn) [GSK466314A] | 1.189
59 | Cc1ccc(Nc2ccnc(Nc3ccc(C)c(F)c3)n2)cc1O [GW582868A] | 1.057
60 | Nc1nccc2scc(-c3ccc4c(c3)CCN4C(=O)Cc3ccccc3)c12 [GSK2576924A] | 0.9278
61 | O=C1NC(=O)C(c2ccccc2)=C1Nc1cccc(O)c1 [SB-390534] | 0.8317
62 | Cc1ccc(C)c(NC(=O)NC2CCN(c3ccnc(Nc4ccc(F)cc4)n3)C2)c1 (stereo not drawn) [GSK1379720A] | 1.268
63 | N#Cc1ccc(-c2cc(-c3cn[nH]c3-c3ccccn3)ccn2)cc1 [GW693028X] | 1.123
